This note sets out measurements from publication PMC4660977 (Molecular pharmaceutics, 2015).

One series has as its target GLP-1R (Homo sapiens, UniProt P43220). As to the kind of experiment: GLP-1R agonism, AKAR3 FRET reporter assay in HEK-GLP-1R cells. In kind it is cell-based. Conditions: undigested. On the technique in general: A reporter such as luciferase makes a cellular process visible.
In a further series the target is T1, meprin β (Homo sapiens, UniProt Q16820).
T1 sequence (Q16820 62-701): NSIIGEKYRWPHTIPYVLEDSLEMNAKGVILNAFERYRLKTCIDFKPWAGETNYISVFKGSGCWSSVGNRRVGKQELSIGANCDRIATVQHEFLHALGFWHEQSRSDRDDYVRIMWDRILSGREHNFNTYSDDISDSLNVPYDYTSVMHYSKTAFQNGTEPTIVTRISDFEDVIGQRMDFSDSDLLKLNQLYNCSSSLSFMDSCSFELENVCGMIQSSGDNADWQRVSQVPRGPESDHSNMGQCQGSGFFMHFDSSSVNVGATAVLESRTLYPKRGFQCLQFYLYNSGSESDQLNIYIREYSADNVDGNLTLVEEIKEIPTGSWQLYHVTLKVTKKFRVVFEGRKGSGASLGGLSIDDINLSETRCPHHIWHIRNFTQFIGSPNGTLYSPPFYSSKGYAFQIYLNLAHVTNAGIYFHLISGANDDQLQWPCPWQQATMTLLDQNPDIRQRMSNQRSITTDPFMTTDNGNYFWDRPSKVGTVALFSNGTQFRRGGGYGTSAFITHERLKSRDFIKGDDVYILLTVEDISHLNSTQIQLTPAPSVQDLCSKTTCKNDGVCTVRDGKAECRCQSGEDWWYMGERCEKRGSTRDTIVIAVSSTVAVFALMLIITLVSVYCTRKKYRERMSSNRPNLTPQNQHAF
As to the kind of experiment: Meprin β digestion, remaining function at GLP-1R. In kind it is in vitro ADME. Conditions: meprin β concentrations greater than 3 µg/mL; 30 min, 100 nM; AKAR3 FRET.

Series [1] deals with intrinsic factor (IF) (human) (UniProt P27352). Briefly: radioligand binding.
intrinsic factor (IF) (human), sequence (P27352 19-417): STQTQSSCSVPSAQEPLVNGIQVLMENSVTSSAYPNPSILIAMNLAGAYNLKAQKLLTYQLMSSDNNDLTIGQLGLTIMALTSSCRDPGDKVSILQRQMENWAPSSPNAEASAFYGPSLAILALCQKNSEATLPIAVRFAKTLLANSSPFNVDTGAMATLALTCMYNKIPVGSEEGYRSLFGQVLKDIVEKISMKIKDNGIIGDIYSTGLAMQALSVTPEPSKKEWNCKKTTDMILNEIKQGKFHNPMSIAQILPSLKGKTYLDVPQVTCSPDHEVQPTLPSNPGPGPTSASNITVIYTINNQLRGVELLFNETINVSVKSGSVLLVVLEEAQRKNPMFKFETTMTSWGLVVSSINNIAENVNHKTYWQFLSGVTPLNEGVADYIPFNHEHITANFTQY
Series [2] addresses glucagon-like peptide-1 receptor (GLP-1R) (UniProt P43220).

glucagon-like peptide-1 receptor (GLP-1R), sequence (P43220 24-463): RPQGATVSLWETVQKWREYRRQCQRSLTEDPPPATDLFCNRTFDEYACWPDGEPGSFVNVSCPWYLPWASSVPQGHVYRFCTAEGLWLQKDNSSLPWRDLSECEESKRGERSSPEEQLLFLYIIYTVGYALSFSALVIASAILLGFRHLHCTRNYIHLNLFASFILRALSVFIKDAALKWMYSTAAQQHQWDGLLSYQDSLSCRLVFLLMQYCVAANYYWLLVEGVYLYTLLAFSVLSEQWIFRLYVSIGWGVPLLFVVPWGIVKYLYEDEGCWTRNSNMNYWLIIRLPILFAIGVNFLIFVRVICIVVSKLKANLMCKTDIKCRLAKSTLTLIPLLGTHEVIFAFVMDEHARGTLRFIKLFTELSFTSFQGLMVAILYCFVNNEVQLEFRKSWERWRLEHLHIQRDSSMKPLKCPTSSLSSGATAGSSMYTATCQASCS
GLP-1R, sequence (P43220 24-463): as above

As for (AzidoK12)-Ex-4 [Compound 1], the “% change in FRET at 100 nM” value on GLP-1R is −12 ± 0.01%. Further, the “function after meprin β digestion” value on meprin β is recorded as “No function”.

The substance “B12-Ex-4 conjugate (4) (from UniProt P26349 48-87) (peptide)” registered an IF binding (constant not named) in series [1] of 6.8 nM.

In the case of “IF-B12-Ex-4 complex (IF-4) (from UniProt P27352 19-417)”, the % change in FRET at 100 nM (AKAR3 in HEK-GLP-1R cells) in series [2] was -12%.
